This passage reports IC50 results from PubChem BioAssay AID489006 (Sanford-Burnham Center for Chemical Genomics, 2010).

Structures are written as SMILES. Activity calls are given as the source filed them. How the calls were made is not given here.

This assay has as its system Jurkat NF-kB reporter, luminescence. The assay can be described thus: Jurkat NF-kB signaling inhibitors – cell-based, luminescence, selectivity assay for B-cell receptor NF-kB inhibitor project, dose response (AID 489006).
As for `COc1ccc(C(C(=O)NC2CCCCC2)N(C(=O)CCl)c2ccc(Cl)cc2)cc1` (stereo unspecified), the IC50 was 0.47 µM.
Next, `Cc1ccc(Nc2nc(N/N=C\c3ccc4c(c3)OCO4)nc(N3CCOCC3)n2)cc1`: 70.3 µM (inactive).
Next, `O=C(CN1C(=O)c2ccccc2S1(=O)=O)c1ccccc1Cl`: 1.26 µM.
On to `CCOc1ccc(S(=O)(=O)NCc2ccncc2)cc1NC(=O)c1ccccc1`, for which the IC50 was > 80 µM (inactive).
As for `COc1ccccc1/C=C1\SC(=S)N(CCC(=O)Nc2nnc(C)s2)C1=O`, the IC50 was > 80 µM (inactive).
Regarding `COC(=O)c1c(-c2ccc(N(C)C)cc2)sc2ccc(OC)cc12`, the IC50 is > 80 µM (inactive).
Next, `CCN1C(=O)c2cccc3c(NC(=O)c4cccc(N5C(=O)CCC5=O)c4)ccc1c23`: > 80 µM (inactive).
For the compound `Cc1cc(OCC(=O)NC2CC2)c2c(C)c(C)c(=O)oc2c1`, the IC50 is > 80 µM (inactive).
To `Cc1ccc(C(=O)NNC(=O)CCCN2C(=O)/C(=C/c3ccccc3Cl)SC2=S)cc1` belongs 4.81 µM; to `O=C(Oc1cccc(/C=N/Nc2nc(N3CCOCC3)nc(N3CCOCC3)n2)c1)c1ccco1`, > 80 µM (inactive).
Next, `CCC(C)N1C(=O)/C(=C/c2c(NCCCOC(C)C)nc3c(C)cccn3c2=O)SC1=S` (stereo unspecified): > 80 µM (inactive).
Regarding `N=c1ccn(Cc2c(Cl)cccc2Cl)cc1`, the IC50 is > 80 µM (inactive).
On to `CC(C)N1C(=O)S/C(=C/c2ccc3c(c2)n(C)c(=O)n3C)C1=O`, for which the IC50 was > 80 µM (inactive).
Next, `Cc1ccccc1Nc1nc(Cl)c(C=O)s1`: > 80 µM (inactive); `Cc1[nH]c2ccccc2c1C(=O)CN1C(=O)NC2(CC(C)CC(C)(C)C2)C1=O` (stereo unspecified): 52.7 µM (inactive); `O=C1CCC2S/C(=C/Nc3ccc(C(F)(F)F)cc3)C(=O)N12` (stereo unspecified): 0.18 µM.
Regarding `COc1cc(-c2nc(C(=O)NCC3CCCO3)cc3c2[nH]c2ccccc23)cc(OC)c1OC` (stereo unspecified), the IC50 was 18 µM.
To `Cc1ccccc1-c1cc(C(=O)Nc2sc(C(=O)OC(C)C)c(C)c2C#N)c2ccccc2n1` belongs > 80 µM (inactive); to `O=C(CN1C(=O)c2ccccc2S1(=O)=O)N1CCc2ccccc21`, 1.76 µM; to `COc1ccc(C(=O)N/N=C/c2ccc(OC)c(CN3CCCc4ccccc43)c2)cc1`, > 80 µM (inactive).
In the case of `CCC(C)[C@H](N)c1nnc(SCC(=O)c2ccc(Cl)cc2)o1` (stereo partly specified), the IC50 was 72.9 µM (inactive).
To `Cc1ccc(C(=O)OCC(=O)N(CC(C)C)c2c(N)n(Cc3ccccc3)c(=O)[nH]c2=O)o1` belongs > 80 µM (inactive); to `CCN(CC)C(=O)c1ccc(S(=O)(=O)Cc2ccc(C)cc2)c([N+](=O)[O-])c1`, 7.08 µM; to `O=C(Nc1cccc(Oc2ccc3c(c2)C(=O)NC3=O)c1)c1cccs1`, > 80 µM (inactive).
To `COc1ccc(/C=C2\SC(=S)N(CCC(=O)Nc3ccc(C(=O)O)cc3)C2=O)cc1` belongs > 80 µM (inactive).
With `COC(=O)c1[nH]c2ccc(C)cc2c1NC(=O)Nc1ccccc1OC`, the IC50 was 55.2 µM (inactive).
`C[C@H]1CCC/C=C/C2C[C@H](O)CC2[C@H](O)/C=C/C(=O)O1` (stereo partly specified): the IC50 is > 80 µM (inactive).
Next, `CCN1C(=O)c2cccc3c(S(=O)(=O)N4CCC(C)CC4)ccc1c23`: > 80 µM (inactive); `O=C(Nc1ccc(NC(=O)c2cc3ccccc3o2)cc1)c1ccc2c(c1)OCCO2`: > 80 µM (inactive); `COc1ccc(-c2csc3nc(-c4cccnc4)nc(N4CCC(C(N)=O)CC4)c23)cc1OC`: 12.1 µM.
To `CN1C(=O)CSc2ccc(NC(=O)N3CCN(c4ccccc4)CC3)cc21` belongs > 80 µM (inactive); to `Cc1ccc(C(=O)CSc2nnc(COc3cc(C)cc(C)c3)o2)cc1`, > 80 µM (inactive); to `CC1Cc2ccccc2N1S(=O)(=O)c1cnc(Cl)c(Cl)c1` (stereo unspecified), 31.6 µM (inactive).
On to `COc1cccc(-c2noc(CCC(=O)NCCc3ccccc3)n2)c1`, for which the IC50 is 29.8 µM (inactive).
Take `COc1cccc(N2CCN(c3ncnc4c3[nH]c3ccc(F)cc34)CC2C)c1` (stereo unspecified): the half-maximal inhibitory concentration (IC50) is 1.31 µM.
To `COc1cc(/C(C)=N\NC(N)=S)cc(OC)c1OC` belongs 72.5 µM (inactive).
Next, `CNC(=O)CCc1nc(-c2ccc(C(C)(C)C)cc2)no1`: > 80 µM (inactive).
Next, `CCCOc1ccc(NC(=O)C(=O)NCCCn2ccnc2)cc1`: > 80 µM (inactive); `CN1CCN(C(=O)c2ccccc2N(Cc2ccccc2)S(=O)(=O)c2ccccc2)CC1`: > 80 µM (inactive).
In the case of `Cn1c(=O)n(C)c2cc(NC(=O)CSc3nnc(-c4ccccc4O)n3-c3ccccc3)ccc21`, the IC50 was 50.1 µM (inactive).
Next, `Cc1cc(C)c2nc(NC(=O)[C@@H](NC(=O)c3cccc(S(=O)(=O)N4CCOCC4)c3)C(C)C)sc2c1`: 20.8 µM (inactive); `CCCCn1c2c(c(=N)c3ccccc31)CCC2`: > 80 µM (inactive).
Turning to `CCc1ccc(/C=C2/SC(=S)N(CCC(=O)Nc3ccc(C(=O)O)cc3)C2=O)cc1`, the IC50 is > 80 µM (inactive).
To `CNC(=O)c1cc(Nc2nnc(-c3ccc(O)cc3)c3ccccc23)ccc1OC` belongs > 80 µM (inactive).
Next, `Cc1ccc(NC(=O)O/N=C/c2c(C)nn(C(C)(C)C)c2C)cc1Cl`: less than 0.16 µM; `COc1cc(C2C(C#N)=C(N)Oc3cc(N)ccc32)cc(OC)c1OC` (stereo unspecified): > 80 µM (inactive).
As to `COC(=O)CSc1nnc(-c2sc3ccccc3c2Cl)o1`, the 50% inhibitory concentration (IC50) is 3.43 µM.
Take `CCN(CC(=O)Nc1c(F)cccc1F)C(=O)C1(c2ccccc2)CC1`: the IC50 was > 80 µM (inactive).
On to `CCCCCOc1ccc(NC(=O)C(=O)NCCCn2ccnc2)cc1`, for which the IC50 was > 80 µM (inactive).
Next, `Cc1nn(C(C)(C)C)c(C)c1/C=N/OC(=O)Nc1ccc(Cl)c(Cl)c1`: 0.208 µM.
To `Cc1ccc(-c2nn3c(C)nnc3c3ccccc23)cc1S(=O)(=O)NCCN1CCOCC1` belongs > 80 µM (inactive); to `COc1ccc(C(C(=O)NC2CCCCC2)N(C(=O)CCl)c2ccc(OC)cc2)cc1` (stereo unspecified), 0.65 µM.
As to `CC1=CC(C)(C)Nc2ccc(OC(=O)c3ccco3)cc21`, the IC50 is 1.4 µM.
As to `CCOC(=O)N1CCN(c2ncnc3c2[nH]c2ccc(OC)cc23)CC1`, the IC50 was 61 µM (inactive).
`Cc1c(NC(=O)/C=C/c2cn(-c3ccccc3)nc2-c2ccccc2)c(=O)n(-c2ccccc2)n1C`: the IC50 was > 80 µM (inactive).
For the compound `N#Cc1ccccc1COc1ccc(/C=C/C(=O)O)cc1`, the IC50 was 1.48 µM.
For `COc1ccc(Cc2nc(-c3ccc(NC(=O)c4cccnc4)cc3)no2)cc1`, the IC50 is > 80 µM (inactive).
Consider `CSC1CCCCC1(O)CSc1nc2c(cc1C#N)CCCC2` (stereo unspecified), for which the IC50 was > 80 µM (inactive).
To `N=c1ccn(Cc2ccccc2Cl)cc1` belongs > 80 µM (inactive).
As to `CC1(C)CC2CC(C)(CN2S(=O)(=O)c2ccc(C(=O)Nc3ccc(S(=O)(=O)N4CCOCC4)cc3)cc2)C1` (stereo unspecified), the IC50 is > 80 µM (inactive).
Next, `CC1(c2nnc(-c3cccc(Cl)c3)o2)CC(c2cccc(Cl)c2)=NO1` (stereo unspecified): > 80 µM (inactive); `CCn1c(=O)c2cc(C(=O)NC(C)C)sc2c2ccccc21`: > 80 µM (inactive); `CC1=CC(C)(C)Nc2ccc(OC(=O)CN3C(=O)CCC3=O)cc21`: 1.54 µM.
Next, `CCOc1ccc(-c2nnc(SCC(=O)NC3CC3)o2)cc1`: 54.2 µM (inactive); `N=c1c2c(n(Cc3ccc(Cl)cc3Cl)c3c1CCC3)CCCC2`: 16.2 µM; `CC(C)(C)C(=O)/C(=C/c1ccncc1)n1cncn1`: 2.89 µM.
For the compound `CC(C)(C)c1ccc(-c2noc(CCC(=O)Nc3cccnc3)n2)cc1`, the IC50 is less than 0.16 µM.
For `COc1ccc(NC(=O)c2cc(-c3ccccn3)nc3ccccc23)cc1S(=O)(=O)N(C)C`, the IC50 was 26.6 µM (inactive).
Next, `CCc1ccc(/C=C2/SC(=S)N(CCC(=O)Nc3cccnc3)C2=O)cc1`: > 80 µM (inactive).
Consider `O=C(CCCN1C(=O)/C(=C/c2ccccc2Cl)SC1=S)NNC(=O)c1ccccc1`, for which the IC50 is 5.2 µM.
As to `O=C(CCCc1nc(-c2ccccc2Cl)no1)NC1CCCC1`, the IC50 is 1.02 µM.
On to `Cc1cccn2c(=O)c3cc(C(=O)NC4CCCCC4)c(=N)n(CCN4CCOCC4)c3nc12`, for which the IC50 was > 80 µM (inactive).
Next, `CCn1c(=O)cc(SCC(=O)N2CCCCC2)c2ccccc21`: > 80 µM (inactive); `Cc1ccc(/C=C2\SC(=S)N(CCCC(=O)NNC(=O)c3ccccc3O)C2=O)cc1`: 0.89 µM.
Next, `CCN(CC(=O)Nc1c(F)cccc1F)C(=O)c1cc(S(=O)(=O)N2CCOCC2)ccc1N1CCCC1`: > 80 µM (inactive); `CC(C)(O)/C=C/C(=O)[C@](C)(O)C1[C@H](O)C[C@@]2(C)C3CC=C4C(C[C@H](O)[C@@H](O)C4(C)C)[C@]3(C)C(=O)C[C@]12C` (stereo partly specified): 31.3 µM (inactive).
For the compound `CC(C)(C)c1ccc(-c2noc(CCC(=O)NCC3CCCO3)n2)cc1` (stereo unspecified), the IC50 is 0.23 µM.
For `CCc1ccc(-c2nnn(CCC(=O)OC)n2)cc1`, the IC50 is 1.78 µM.
To `COc1cccc(/C=C2\SC(=S)N(CCCC(=O)NC3=NCCS3)C2=O)c1` belongs 25.9 µM (inactive); to `COc1cc(C[C@@H]2C(=O)OC[C@H]2Cc2ccc(OC)c(OC)c2)ccc1O`, > 80 µM (inactive); to `Cc1ccc(C(=O)CSc2nnc(COc3ccccc3)o2)cc1`, > 80 µM (inactive).
As to `Cc1c(CCC(=O)N2CCC[C@H]2C(=O)O)c(=O)oc2cc3oc4c(c3cc12)CCCC4`, the IC50 is > 80 µM (inactive).
Turning to `CCOC(=O)C1CCN(c2ncnc3c2cnn3-c2ccc(Cl)cc2)CC1`, the IC50 was 0.39 µM.
As for `CSc1ccc(-c2nc(CSCC(=O)NC3CC3)c(C)o2)cc1`, the IC50 is > 80 µM (inactive).
To `Cc1c(CCC(=O)NCCCn2ccnc2)c(=O)oc2c(C)c3oc4c(c3cc12)CCCC4` belongs 11 µM; to `CCc1ccc2nc(Nc3nc(COC)cc(=O)[nH]3)nc(C)c2c1`, > 80 µM (inactive).

The IC50 is the concentration that inhibits the measured activity by half.
